pIC50: −log10 of the molar value.
Key:
[1] = Growth inhibition of human HCT116 cells at 10 uM after 72 hrs by MTT assay; assay type: functional; settings: HCT-116, 72 h
[2] = target: Heat shock protein HSP 90-alpha (Homo sapiens, UniProt P07900); experiment: Inhibition of FITC-labeled geldanamycin binding to human Hsp90alpha by fluorescence polarization assay
[3] = Growth inhibition of human HFF1 cells at 10 uM after 72 hrs by MTT assay; assay type: cell-based, HFF-1
[4] = Growth inhibition of human MCF7 cells at 10 uM after 72 hrs by MTT assay; assay type: functional; settings: MCF7, 72 h
[5] = Growth inhibition of human SKBR3 cells at 10 uM after 72 hrs by MTT assay; assay type: functional; settings: SK-BR-3, 72 h
[6] = target: T1, Heat shock protein HSP90 (Homo sapiens) (UniProt P07900+P08238); experiment: Inhibition of Hsp90 in human MCF7 cells assessed as proteasomal degradation of EGFR after 24 hrs by Western blot analysis; assay type: cell-based
[7] = target: T1, Heat shock protein HSP90 (Homo sapiens); experiment: Inhibition of Hsp90 in human MCF7 cells assessed as proteasomal degradation of Akt after 24 hrs by Western blot analysis; assay type: cell-based
[8] = target: T1, Heat shock protein HSP90 (Homo sapiens); experiment: Inhibition of HSP90 in human MCF7 cells assessed as increase in expression level of Hsp70 after 24 hrs by Western blot analysis; assay type: cell-based
[9] = target: T1, Heat shock protein HSP90 (Homo sapiens); experiment: Inhibition of Hsp90 in human MCF7 cells assessed as proteasomal degradation of Cdk4 after 24 hrs by Western blot analysis; assay type: cell-based
[10] = target: T1, Heat shock protein HSP90 (Homo sapiens); experiment: Inhibition of Hsp90 in human MCF7 cells assessed as proteasomal degradation of Her2 after 24 hrs by Western blot analysis; assay type: cell-based
cells [11] = settings: Homo sapiens, K562, 48 h
Description: Cytotoxicity against human K562 cells after 48 hrs by sulforhodamine B assay

cells [12] = settings: Homo sapiens, UO-31, 48 h
Description: Cytotoxicity against human UO31 cells after 48 hrs by sulforhodamine B assay

cells [13] = settings: Homo sapiens, M14, 48 h
Description: Cytotoxicity against human M14 cells after 48 hrs by sulforhodamine B assay

cells [14] = settings: Homo sapiens, 786-0, 48 h
Description: Cytotoxicity against human 786-0 cells after 48 hrs by sulforhodamine B assay

cells [15] = settings: Homo sapiens, HCC 2998, 48 h
Description: Cytotoxicity against human HCC2998 cells after 48 hrs by sulforhodamine B assay

cells [16] = settings: Homo sapiens, BT-549, 48 h
Description: Cytotoxicity against human BT549 cells after 48 hrs by sulforhodamine B assay

[17] = Cytotoxicity against human Hs 578T cells after 48 hrs by sulforhodamine B assay; assay type: functional
[18] = Growth inhibition of human MDA-MB-468 cells after 48 hrs by sulforhodamine B assay; assay type: functional; settings: MDA-MB-468, 48 h
cells [19] = settings: Homo sapiens, SF-295, 48 h
Description: Cytotoxicity against human SF295 cells after 48 hrs by sulforhodamine B assay

cells [20] = settings: Homo sapiens, UACC-257, 48 h
Description: Cytotoxicity against human UACC257 cells after 48 hrs by sulforhodamine B assay

cells [21] = settings: Homo sapiens, HOP-92, 48 h
Description: Cytotoxicity against human HOP92 cells after 48 hrs by sulforhodamine B assay

cells [22] = settings: Homo sapiens, SK-MEL-28, 48 h
Description: Cytotoxicity against human SK-MEL-28 cells after 48 hrs by sulforhodamine B assay

cells [23] = settings: Homo sapiens, T47D, 48 h
Description: Cytotoxicity against human T47D cells after 48 hrs by sulforhodamine B assay

cells [24] = settings: Homo sapiens, HL-60, 48 h
Description: Cytotoxicity against human HL-60(TB) cells after 48 hrs by sulforhodamine B assay

cells [25] = settings: Homo sapiens, SN12C, 48 h
Description: Cytotoxicity against human SN12C cells after 48 hrs by sulforhodamine B assay

cells [26] = settings: Homo sapiens, HCT-15, 48 h
Description: Cytotoxicity against human HCT15 cells after 48 hrs by sulforhodamine B assay

cells [27] = settings: Homo sapiens, COLO 205, 48 h
Description: Cytotoxicity against human COLO205 cells after 48 hrs by sulforhodamine B assay

cells [28] = settings: Homo sapiens, SF-539, 48 h
Description: Cytotoxicity against human SF539 cells after 48 hrs by sulforhodamine B assay

cells [29] = settings: Homo sapiens, MDA-MB-231, 48 h
Description: Cytotoxicity against human MDA-MB-231 cells after 48 hrs by sulforhodamine B assay

cells [30] = settings: Homo sapiens, SNB-19, 48 h
Description: Cytotoxicity against human SNB19 cells after 48 hrs by sulforhodamine B assay

cells [31] = settings: Homo sapiens, DU-145, 48 h
Description: Cytotoxicity against human DU145 cells after 48 hrs by sulforhodamine B assay

cells [32] = settings: Homo sapiens, OVCAR-8, 48 h
Description: Cytotoxicity against human OVCAR8 cells after 48 hrs by sulforhodamine B assay

cells [33] = settings: Homo sapiens, NCI-H23, 48 h
Description: Cytotoxicity against human NCI-H23 cells after 48 hrs by sulforhodamine B assay

cells [34] = settings: Homo sapiens, MDA-MB-435, 48 h
Description: Cytotoxicity against human MDA-MB-435 cells after 48 hrs by sulforhodamine B assay

[35] = Cytotoxicity against human NCI-ADR-RES cells after 48 hrs by sulforhodamine B assay; assay type: functional
cells [36] = settings: Homo sapiens, RXF 393, 48 h
Description: Cytotoxicity against human RXF393 cells after 48 hrs by sulforhodamine B assay

cells [37] = settings: Homo sapiens, HOP-62, 48 h
Description: Cytotoxicity against human HOP62 cells after 48 hrs by sulforhodamine B assay

cells [38] = settings: Homo sapiens, HCT-116, 48 h
Description: Cytotoxicity against human HCT116 cells after 48 hrs by sulforhodamine B assay

cells [39] = settings: Homo sapiens, IGROV-1, 48 h
Description: Cytotoxicity against human IGROV1 cells after 48 hrs by sulforhodamine B assay

cells [40] = settings: Homo sapiens, NCI-H522, 48 h
Description: Cytotoxicity against human NCI-H522 cells after 48 hrs by sulforhodamine B assay

cells [41] = settings: Homo sapiens, OVCAR-3, 48 h
Description: Cytotoxicity against human OVCAR3 cells after 48 hrs by sulforhodamine B assay

cells [42] = settings: Homo sapiens, PC-3, 48 h
Description: Cytotoxicity against human PC3 cells after 48 hrs by sulforhodamine B assay

cells [43] = settings: Homo sapiens, A498, 48 h
Description: Cytotoxicity against human A498 cells after 48 hrs by sulforhodamine B assay

cells [44] = settings: Homo sapiens, OVCAR-4, 48 h
Description: Cytotoxicity against human OVCAR4 cells after 48 hrs by sulforhodamine B assay

cells [45] = settings: Homo sapiens, SK-MEL-5, 48 h
Description: Cytotoxicity against human SK-MEL-5 cells after 48 hrs by sulforhodamine B assay

cells [46] = settings: Homo sapiens, ACHN, 48 h
Description: Cytotoxicity against human ACHN cells after 48 hrs by sulforhodamine B assay

cells [47] = settings: Homo sapiens, NCI-H460, 48 h
Description: Cytotoxicity against human NCI-H460 cells after 48 hrs by sulforhodamine B assay

cells [48] = settings: Homo sapiens, MCF7, 48 h
Description: Cytotoxicity against human MCF7 cells after 48 hrs by sulforhodamine B assay

cells [49] = settings: Homo sapiens, NCI-H226, 48 h
Description: Cytotoxicity against human NCI-H226 cells after 48 hrs by sulforhodamine B assay

cells [50] = settings: Homo sapiens, KM12, 48 h
Description: Cytotoxicity against human KM12 cells after 48 hrs by sulforhodamine B assay

cells [51] = settings: Homo sapiens, EKVX, 48 h
Description: Cytotoxicity against human EKVX cells after 48 hrs by sulforhodamine B assay

cells [52] = settings: Homo sapiens, RPMI-8226, 48 h
Description: Cytotoxicity against human RPMI8226 cells after 48 hrs by sulforhodamine B assay

cells [53] = settings: Homo sapiens, LOX IMVI, 48 h
Description: Cytotoxicity against human LOXIMVI cells after 48 hrs by sulforhodamine B assay

cells [54] = settings: Homo sapiens, HT-29, 48 h
Description: Cytotoxicity against human HT-29 cells after 48 hrs by sulforhodamine B assay

[55] = Cytotoxicity against human SR cells after 48 hrs by sulforhodamine B assay; assay type: functional
cells [56] = settings: Homo sapiens, CCRF-CEM, 48 h
Description: Cytotoxicity against human CCRF-CEM cells after 48 hrs by sulforhodamine B assay

cells [57] = settings: Homo sapiens, SW-620, 48 h
Description: Cytotoxicity against human SW620 cells after 48 hrs by sulforhodamine B assay

cells [58] = settings: Homo sapiens, MOLT-4, 48 h
Description: Cytotoxicity against human MOLT4 cells after 48 hrs by sulforhodamine B assay

cells [59] = settings: Homo sapiens, SNB-75, 48 h
Description: Cytotoxicity against human SNB75 cells after 48 hrs by sulforhodamine B assay

cells [60] = settings: Homo sapiens, OVCAR-5, 48 h
Description: Cytotoxicity against human OVCAR5 cells after 48 hrs by sulforhodamine B assay

cells [61] = settings: Homo sapiens, CAKI-1, 48 h
Description: Cytotoxicity against human Caki1 cells after 48 hrs by sulforhodamine B assay

cells [62] = settings: Homo sapiens, Malme-3M, 48 h
Description: Cytotoxicity against human MALME-3M cells after 48 hrs by sulforhodamine B assay

cells [63] = settings: Homo sapiens, U-251, 48 h
Description: Cytotoxicity against human U251 cells after 48 hrs by sulforhodamine B assay

cells [64] = settings: Homo sapiens, SK-OV-3, 48 h
Description: Cytotoxicity against human SKOV3 cells after 48 hrs by sulforhodamine B assay

cells [65] = settings: Homo sapiens, SK-MEL-2, 48 h
Description: Cytotoxicity against human SK-MEL-2 cells after 48 hrs by sulforhodamine B assay

cells [66] = settings: Homo sapiens, UACC-62, 48 h
Description: Cytotoxicity against human UACC62 cells after 48 hrs by sulforhodamine B assay

[67] = Cytotoxicity against human A549/ATCC cells after 48 hrs by sulforhodamine B assay; assay type: functional; settings: A549, 48 h
cells [68] = settings: Homo sapiens, TK-10, 48 h
Description: Cytotoxicity against human TK10 cells after 48 hrs by sulforhodamine B assay

cells [69] = settings: Homo sapiens, SF-268, 48 h
Description: Cytotoxicity against human SF268 cells after 48 hrs by sulforhodamine B assay

Nc1nc(Cl)c2c(Cc3ccccc3)cn(Cc3cc4c(cc3I)OCO4)c2n1
inhibition at 10 µM [1]: 74.5%
pIC50 [2]: 6.12
inhibition at 72 h, 10 µM [3]: 36.2%
inhibition at 10 µM [4]: 74%
inhibition at 10 µM [5]: 63.8%

COc1c(C)cnc(Cn2cc(Cc3cccc(C)c3)c3c(Cl)nc(N)nc32)c1C
pIC50 [2]: 7.29

COc1c(C)cnc(Cn2cc(Cc3ccc(C)cc3)c3c(Cl)nc(N)nc32)c1C
pIC50 [2]: 7.24

COc1cc(Cc2cn(Cc3ncc(C)c(OC)c3C)c3nc(N)nc(Cl)c23)ccc1Br
pIC50 [2]: 7.10

Nc1nc(Cl)c2c(Cc3ccccc3)cn(Cc3cc4c(cc3Br)OCO4)c2n1
inhibition at 10 µM [1]: 70.4%
pIC50 [2]: 6.19
inhibition at 72 h, 10 µM [3]: 20.7%
inhibition at 10 µM [4]: 69.9%
inhibition at 10 µM [5]: 40.9%

COc1c(C)cnc(Cn2cc(Cc3ccccc3)c3c(Cl)nc(N)nc32)c1C
pIC50 [2]: 7.44
inhibition [6]: Dose-dependent effect
inhibition [7]: Dose-dependent effect
inhibition [8]: Dose-dependent effect
inhibition [9]: Dose-dependent effect
inhibition [10]: Dose-dependent effect

COc1c(C)cnc(Cn2cc(Cc3cccc(C(F)(F)F)c3)c3c(Cl)nc(N)nc32)c1C
pIC50 [2]: 5.06

COc1ccc(Cc2cn(Cc3ncc(C)c(OC)c3C)c3nc(N)nc(Cl)c23)cc1
inhibition at 10 µM [1]: 80.9%
pIC50 [2]: 7.03
inhibition at 72 h, 10 µM [3]: 10.1%
inhibition at 10 µM [4]: 80.1%
inhibition at 10 µM [5]: 69.4%

COc1c(C)cnc(Cn2cnc3c(Cl)nc(N)nc32)c1C [BIIB021]
inhibition at 10 µM [1]: 71.9%
inhibition at 72 h, 10 µM [3]: 51.3%
inhibition at 10 µM [4]: 84.8%
inhibition at 10 µM [5]: 86.2%

COc1c(C)cnc(Cn2cc(Cc3ccc(Cl)cc3)c3c(Cl)nc(N)nc32)c1C
pIC50 [2]: 7.32

C=CCNC1=C2C[C@@H](C)C[C@H](OC)[C@H](O)[C@@H](C)/C=C(\C)[C@H](OC(N)=O)[C@@H](OC)/C=C\C=C(/C)C(=O)NC(=CC1=O)C2=O [TANESPIMYCIN]
inhibition at 10 µM [1]: 74.4%
inhibition at 72 h, 10 µM [3]: 65.5%
inhibition at 10 µM [4]: 79.7%
inhibition at 10 µM [5]: 88.9%

Nc1nc(Cl)c2c(Cc3ccccc3)cn(Cc3ccc4c(c3)OCO4)c2n1
inhibition at 10 µM [1]: 48.8%
inhibition at 72 h, 10 µM [3]: 11.2%
inhibition at 10 µM [4]: 54%
inhibition at 10 µM [5]: 4.32%

CC(C)NCCCn1c(Sc2cc3c(cc2I)OCO3)nc2c(N)ncnc21 [PU-H71]
inhibition at 10 µM [1]: 78.4%
GI50 (cells [11]): 0.071 µM
GI50 (cells [12]): 0.324 µM
GI50 (cells [13]): 0.234 µM
GI50 (cells [14]): 0.513 µM
GI50 (cells [15]): 0.282 µM
GI50 (cells [16]): 1.51 µM
GI50 [17]: 1.29 µM
GI50 [18]: 0.083 µM
GI50 (cells [19]): 0.145 µM
GI50 (cells [20]): 0.309 µM
GI50 (cells [21]): 0.288 µM
GI50 (cells [22]): 0.417 µM
GI50 (cells [23]): 0.155 µM
GI50 (cells [24]): 0.063 µM
GI50 (cells [25]): 0.174 µM
GI50 (cells [26]): 0.437 µM
GI50 (cells [27]): 0.048 µM
GI50 (cells [28]): 0.851 µM
GI50 (cells [29]): 0.479 µM
GI50 (cells [30]): 0.646 µM
GI50 (cells [31]): 0.048 µM
GI50 (cells [32]): 0.155 µM
GI50 (cells [33]): 0.089 µM
GI50 (cells [34]): 0.091 µM
GI50 [35]: 3.63 µM
GI50 (cells [36]): 0.759 µM
GI50 (cells [37]): 0.263 µM
GI50 (cells [38]): 0.063 µM
GI50 (cells [39]): 0.089 µM
GI50 (cells [40]): 0.059 µM
GI50 (cells [41]): 0.589 µM
GI50 (cells [42]): 0.132 µM
GI50 (cells [43]): 0.437 µM
GI50 (cells [44]): 33.1 µM
GI50 (cells [45]): 0.457 µM
GI50 (cells [46]): 0.295 µM
GI50 (cells [47]): 0.058 µM
GI50 (cells [48]): 0.046 µM
GI50 (cells [49]): 0.759 µM
GI50 (cells [50]): 0.059 µM
GI50 (cells [51]): 2.51 µM
GI50 (cells [52]): 1.51 µM
GI50 (cells [53]): 0.079 µM
GI50 (cells [54]): 0.038 µM
GI50 [55]: 0.06 µM
inhibition at 10 µM [4]: 70.5%
GI50 (cells [56]): 0.427 µM
GI50 (cells [57]): 0.059 µM
GI50 (cells [58]): 0.091 µM
GI50 (cells [59]): 0.724 µM
GI50 (cells [60]): 3.02 µM
inhibition at 10 µM [5]: 65.3%
GI50 (cells [61]): 0.525 µM
GI50 (cells [62]): 0.123 µM
GI50 (cells [63]): 0.129 µM
GI50 (cells [64]): 0.045 µM
GI50 (cells [65]): 0.355 µM
GI50 (cells [66]): 0.372 µM
GI50 [67]: 0.087 µM
GI50 (cells [68]): 0.162 µM
GI50 (cells [69]): 2.09 µM

— ChEMBL document CHEMBL3872253, “Synthesis and in vitro antiproliferative activity of C5-benzyl substituted 2-amino-pyrrolo[2,3-d]pyrimidines as potent Hsp90 inhibitors” (Bioorg Med Chem Lett, 2017)
